# Measurements: PMC4823954, “From fighting depression to conquering tumors: a novel tricyclic thiazepine compound as a tubulin polymerization inhibitor” (Cell Death & Disease, 2016)
# Assays:
# Assay in all cases: KINOMEscan
# Format in all cases: binding
# Details in all cases: read-out: % Ctrl
# ANKK1 = biological target: T1, ANKK1 (Homo sapiens, UniProt Q8NFD2)
# T1 construct: purchased DiscoveRx KINOMEscan
# How it was run: (§1)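 Competition binding panel of 442 non-mutant kinases: test compound at 5 and 10 μM competed with an active-site-directed ligand for 1 h with shaking. Bound kinase was eluted with 0.5 μM ligand and quantified by qPCR; %Ctrl = (compound − positive control)/(DMSO − positive control) × 100, lower meaning tighter binding.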
# ASK1 = biological target: T2, ASK1 (Homo sapiens, UniProt Q99683)
# T2 construct: purchased DiscoveRx KINOMEscan
# How it was run: as §1
# BRK = biological target: T3, BRK (Homo sapiens, UniProt Q13882)
# T3 construct: purchased DiscoveRx KINOMEscan
# How it was run: as §1
# BRSK1 = biological target: T4, BRSK1 (Homo sapiens, UniProt Q8TDC3)
# T4 construct: purchased DiscoveRx KINOMEscan
# How it was run: as §1
# CSNK1G3 = biological target: T5, CSNK1G3 (Homo sapiens, UniProt Q9Y6M4)
# T5 construct: purchased DiscoveRx KINOMEscan
# How it was run: as §1
# DCAMKL2 = biological target: T6, DCAMKL2 (Homo sapiens, UniProt Q8N568)
# T6 construct: purchased DiscoveRx KINOMEscan
# How it was run: as §1
# DMPK = biological target: T7, DMPK (Homo sapiens, UniProt Q09013)
# T7 construct: purchased DiscoveRx KINOMEscan
# How it was run: as §1
# EPHA2 = biological target: T8, EPHA2 (Homo sapiens, UniProt P29317)
# T8 construct: purchased DiscoveRx KINOMEscan
# How it was run: as §1
# ERK5 = biological target: T9, ERK5 (Homo sapiens, UniProt Q13164)
# T9 construct: purchased DiscoveRx KINOMEscan
# How it was run: as §1
# FER = biological target: T10, FER (Homo sapiens, UniProt P16591)
# T10 construct: purchased DiscoveRx KINOMEscan
# How it was run: as §1
# FGFR1 = biological target: T11, FGFR1 (Homo sapiens, UniProt P11362)
# T11 construct: purchased DiscoveRx KINOMEscan
# How it was run: as §1
# FLT4 = biological target: T12, FLT4 (Homo sapiens, UniProt P35916)
# T12 construct: purchased DiscoveRx KINOMEscan
# How it was run: as §1
# GCN2(Kin.Dom.2,S808G) = biological target: T13, GCN2(Kin.Dom.2,S808G) (Homo sapiens, UniProt Q9P2K8, S808G)
# T13 construct: GCN2(Kin.Dom.2,S808G); purchased DiscoveRx KINOMEscan
# HUNK = biological target: T14, HUNK (Homo sapiens, UniProt P57058)
# T14 construct: purchased DiscoveRx KINOMEscan
# How it was run: as §1
# IKK-alpha = biological target: T15, IKK-alpha (Homo sapiens, UniProt O15111)
# T15 construct: purchased DiscoveRx KINOMEscan
# How it was run: as §1
# JNK3 = biological target: T16, JNK3 (Homo sapiens, UniProt P53779)
# T16 construct: purchased DiscoveRx KINOMEscan
# How it was run: as §1
# KIT(D816H) = biological target: T17, KIT(D816H) (Homo sapiens, UniProt P10721, D816H)
# T17 construct: purchased DiscoveRx KINOMEscan
# LOK = biological target: T18, LOK (Homo sapiens, UniProt O94804)
# T18 construct: purchased DiscoveRx KINOMEscan
# How it was run: as §1
# MAP3K4 = biological target: T19, MAP3K4 (Homo sapiens, UniProt Q9Y6R4)
# T19 construct: purchased DiscoveRx KINOMEscan
# How it was run: as §1
# PDGFRA = biological target: T20, PDGFRA (Homo sapiens, UniProt P16234)
# T20 construct: purchased DiscoveRx KINOMEscan
# How it was run: as §1
# PFTAIRE2 = biological target: T21, PFTAIRE2 (Homo sapiens, UniProt Q96Q40)
# T21 construct: purchased DiscoveRx KINOMEscan
# How it was run: as §1
# PIK3CA(M1043I) = biological target: T22, PIK3CA(M1043I) (Homo sapiens, UniProt P42336, M1043I)
# T22 construct: purchased DiscoveRx KINOMEscan
# PRKG2 = biological target: T23, PRKG2 (Homo sapiens, UniProt Q13237)
# T23 construct: purchased DiscoveRx KINOMEscan
# How it was run: as §1
# RIOK1 = biological target: T24, RIOK1 (Homo sapiens, UniProt Q9BRS2)
# T24 construct: purchased DiscoveRx KINOMEscan
# How it was run: as §1
# SRC = biological target: T25, SRC (Homo sapiens, UniProt P12931)
# T25 construct: purchased DiscoveRx KINOMEscan
# How it was run: as §1
# TBK1 = biological target: T26, TBK1 (Homo sapiens, UniProt Q9UHD2)
# T26 construct: purchased DiscoveRx KINOMEscan
# How it was run: as §1
# TRPM6 = biological target: T27, TRPM6 (Homo sapiens, UniProt Q9BX84)
# T27 construct: purchased DiscoveRx KINOMEscan
# How it was run: as §1
# [1] = biological target: T28, TYK2(JH1domain-catalytic) (Homo sapiens, UniProt P29597)
# T28 construct: TYK2(JH1domain-catalytic); purchased DiscoveRx KINOMEscan
# How it was run: as §1
# p38-alpha = biological target: T29, p38-alpha (Homo sapiens, UniProt Q16539)
# T29 construct: purchased DiscoveRx KINOMEscan
# How it was run: as §1
# T2 sequence (Q99683 whole entry): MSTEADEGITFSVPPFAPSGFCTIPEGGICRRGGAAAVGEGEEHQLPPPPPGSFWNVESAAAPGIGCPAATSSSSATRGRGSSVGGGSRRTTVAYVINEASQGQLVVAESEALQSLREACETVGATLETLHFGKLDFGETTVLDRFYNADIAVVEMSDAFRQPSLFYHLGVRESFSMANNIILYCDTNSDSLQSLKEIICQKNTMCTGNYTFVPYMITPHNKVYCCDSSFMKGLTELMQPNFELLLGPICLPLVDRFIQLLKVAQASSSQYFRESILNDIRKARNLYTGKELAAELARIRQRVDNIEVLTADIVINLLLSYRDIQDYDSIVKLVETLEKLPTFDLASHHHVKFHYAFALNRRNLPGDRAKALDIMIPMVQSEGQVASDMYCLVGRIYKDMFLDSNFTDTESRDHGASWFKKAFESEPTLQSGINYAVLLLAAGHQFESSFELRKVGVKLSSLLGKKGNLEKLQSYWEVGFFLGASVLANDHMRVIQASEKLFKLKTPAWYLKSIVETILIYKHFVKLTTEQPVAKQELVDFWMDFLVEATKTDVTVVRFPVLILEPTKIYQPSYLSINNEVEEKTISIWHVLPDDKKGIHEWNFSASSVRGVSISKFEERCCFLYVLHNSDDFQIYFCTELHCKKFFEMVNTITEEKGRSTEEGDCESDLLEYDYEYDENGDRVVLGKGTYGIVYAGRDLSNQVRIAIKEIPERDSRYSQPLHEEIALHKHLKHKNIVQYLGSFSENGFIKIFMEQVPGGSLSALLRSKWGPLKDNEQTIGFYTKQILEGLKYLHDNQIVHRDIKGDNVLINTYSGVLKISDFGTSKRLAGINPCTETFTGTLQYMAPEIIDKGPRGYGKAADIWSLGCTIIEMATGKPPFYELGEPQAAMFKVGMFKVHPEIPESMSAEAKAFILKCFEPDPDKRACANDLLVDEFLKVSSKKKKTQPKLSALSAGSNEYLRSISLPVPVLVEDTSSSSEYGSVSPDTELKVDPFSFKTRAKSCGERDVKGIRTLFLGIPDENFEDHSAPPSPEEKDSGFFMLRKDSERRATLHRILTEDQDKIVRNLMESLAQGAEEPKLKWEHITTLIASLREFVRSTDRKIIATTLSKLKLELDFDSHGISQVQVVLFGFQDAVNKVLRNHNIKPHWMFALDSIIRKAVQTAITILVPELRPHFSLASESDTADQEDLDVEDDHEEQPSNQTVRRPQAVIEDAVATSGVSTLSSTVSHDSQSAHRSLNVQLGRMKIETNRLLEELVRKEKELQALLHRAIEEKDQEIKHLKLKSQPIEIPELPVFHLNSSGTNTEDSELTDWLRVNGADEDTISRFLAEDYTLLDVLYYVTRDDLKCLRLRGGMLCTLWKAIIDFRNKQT
# T27 sequence (Q9BX84 whole entry): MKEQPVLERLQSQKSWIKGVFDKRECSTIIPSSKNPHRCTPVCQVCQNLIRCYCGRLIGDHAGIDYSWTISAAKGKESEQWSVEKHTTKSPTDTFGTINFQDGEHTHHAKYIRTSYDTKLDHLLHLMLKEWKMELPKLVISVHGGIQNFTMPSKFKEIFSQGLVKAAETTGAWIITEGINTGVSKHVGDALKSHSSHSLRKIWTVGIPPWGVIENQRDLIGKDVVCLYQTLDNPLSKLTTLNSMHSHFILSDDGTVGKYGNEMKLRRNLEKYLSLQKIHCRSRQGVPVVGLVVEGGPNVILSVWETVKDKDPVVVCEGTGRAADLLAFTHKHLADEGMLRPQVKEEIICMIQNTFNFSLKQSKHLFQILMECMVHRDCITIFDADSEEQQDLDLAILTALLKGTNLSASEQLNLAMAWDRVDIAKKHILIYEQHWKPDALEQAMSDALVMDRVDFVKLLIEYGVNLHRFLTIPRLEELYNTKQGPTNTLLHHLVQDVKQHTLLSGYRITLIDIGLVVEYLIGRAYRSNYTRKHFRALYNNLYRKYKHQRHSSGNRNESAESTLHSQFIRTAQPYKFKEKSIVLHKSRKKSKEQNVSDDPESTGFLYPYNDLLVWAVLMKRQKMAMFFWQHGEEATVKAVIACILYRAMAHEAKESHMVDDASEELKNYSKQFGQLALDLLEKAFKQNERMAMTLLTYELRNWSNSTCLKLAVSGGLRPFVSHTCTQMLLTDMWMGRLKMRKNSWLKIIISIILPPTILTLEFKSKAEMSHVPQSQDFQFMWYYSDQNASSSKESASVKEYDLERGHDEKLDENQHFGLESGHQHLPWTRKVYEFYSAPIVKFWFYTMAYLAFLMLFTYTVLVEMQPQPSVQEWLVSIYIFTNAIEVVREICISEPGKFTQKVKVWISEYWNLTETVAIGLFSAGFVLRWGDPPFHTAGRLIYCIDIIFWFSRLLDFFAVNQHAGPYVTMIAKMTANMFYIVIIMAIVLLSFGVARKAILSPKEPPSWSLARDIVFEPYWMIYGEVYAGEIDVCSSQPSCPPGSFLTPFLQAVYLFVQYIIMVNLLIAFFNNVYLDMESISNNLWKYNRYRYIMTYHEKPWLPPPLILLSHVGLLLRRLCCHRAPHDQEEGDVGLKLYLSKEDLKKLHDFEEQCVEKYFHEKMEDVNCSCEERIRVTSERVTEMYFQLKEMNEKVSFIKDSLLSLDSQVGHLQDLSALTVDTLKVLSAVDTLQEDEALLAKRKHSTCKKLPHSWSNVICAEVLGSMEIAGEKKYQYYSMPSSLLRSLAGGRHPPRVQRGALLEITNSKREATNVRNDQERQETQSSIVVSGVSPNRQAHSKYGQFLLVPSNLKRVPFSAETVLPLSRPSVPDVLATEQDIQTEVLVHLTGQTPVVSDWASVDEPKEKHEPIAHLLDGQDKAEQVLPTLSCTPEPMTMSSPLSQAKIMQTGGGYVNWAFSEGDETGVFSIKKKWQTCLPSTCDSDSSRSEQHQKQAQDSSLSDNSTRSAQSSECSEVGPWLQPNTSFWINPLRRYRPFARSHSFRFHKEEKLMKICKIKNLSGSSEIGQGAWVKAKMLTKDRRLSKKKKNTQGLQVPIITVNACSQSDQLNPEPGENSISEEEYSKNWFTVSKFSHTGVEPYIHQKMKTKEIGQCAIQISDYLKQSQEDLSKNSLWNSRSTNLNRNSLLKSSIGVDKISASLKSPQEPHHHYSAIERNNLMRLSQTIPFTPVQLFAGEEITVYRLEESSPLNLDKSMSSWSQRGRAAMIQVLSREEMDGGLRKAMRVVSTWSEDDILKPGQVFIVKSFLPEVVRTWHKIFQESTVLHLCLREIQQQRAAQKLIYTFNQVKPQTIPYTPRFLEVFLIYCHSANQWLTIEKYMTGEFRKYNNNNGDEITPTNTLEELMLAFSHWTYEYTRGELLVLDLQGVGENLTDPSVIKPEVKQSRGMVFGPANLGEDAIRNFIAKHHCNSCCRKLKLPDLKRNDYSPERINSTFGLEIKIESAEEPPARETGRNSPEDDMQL
# T26 sequence (Q9UHD2 whole entry): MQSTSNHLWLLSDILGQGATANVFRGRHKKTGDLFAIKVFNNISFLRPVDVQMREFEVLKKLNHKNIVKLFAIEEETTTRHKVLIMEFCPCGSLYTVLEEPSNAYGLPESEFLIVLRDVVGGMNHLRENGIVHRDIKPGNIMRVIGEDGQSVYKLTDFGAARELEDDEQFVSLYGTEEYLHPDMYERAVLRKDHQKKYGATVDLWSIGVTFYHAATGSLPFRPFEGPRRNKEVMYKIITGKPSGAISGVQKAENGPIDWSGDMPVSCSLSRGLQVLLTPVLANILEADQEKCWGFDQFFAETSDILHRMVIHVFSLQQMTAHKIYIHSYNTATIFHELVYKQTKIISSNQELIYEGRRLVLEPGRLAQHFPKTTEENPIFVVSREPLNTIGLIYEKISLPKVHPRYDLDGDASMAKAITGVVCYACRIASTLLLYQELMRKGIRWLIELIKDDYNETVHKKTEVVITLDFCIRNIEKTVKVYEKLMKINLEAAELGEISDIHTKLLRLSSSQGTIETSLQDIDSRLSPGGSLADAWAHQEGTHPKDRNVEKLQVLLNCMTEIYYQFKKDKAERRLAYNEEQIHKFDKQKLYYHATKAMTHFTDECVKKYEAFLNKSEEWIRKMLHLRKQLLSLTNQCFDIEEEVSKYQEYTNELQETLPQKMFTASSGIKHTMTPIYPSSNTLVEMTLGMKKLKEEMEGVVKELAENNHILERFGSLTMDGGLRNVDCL
# T18 sequence (O94804 whole entry): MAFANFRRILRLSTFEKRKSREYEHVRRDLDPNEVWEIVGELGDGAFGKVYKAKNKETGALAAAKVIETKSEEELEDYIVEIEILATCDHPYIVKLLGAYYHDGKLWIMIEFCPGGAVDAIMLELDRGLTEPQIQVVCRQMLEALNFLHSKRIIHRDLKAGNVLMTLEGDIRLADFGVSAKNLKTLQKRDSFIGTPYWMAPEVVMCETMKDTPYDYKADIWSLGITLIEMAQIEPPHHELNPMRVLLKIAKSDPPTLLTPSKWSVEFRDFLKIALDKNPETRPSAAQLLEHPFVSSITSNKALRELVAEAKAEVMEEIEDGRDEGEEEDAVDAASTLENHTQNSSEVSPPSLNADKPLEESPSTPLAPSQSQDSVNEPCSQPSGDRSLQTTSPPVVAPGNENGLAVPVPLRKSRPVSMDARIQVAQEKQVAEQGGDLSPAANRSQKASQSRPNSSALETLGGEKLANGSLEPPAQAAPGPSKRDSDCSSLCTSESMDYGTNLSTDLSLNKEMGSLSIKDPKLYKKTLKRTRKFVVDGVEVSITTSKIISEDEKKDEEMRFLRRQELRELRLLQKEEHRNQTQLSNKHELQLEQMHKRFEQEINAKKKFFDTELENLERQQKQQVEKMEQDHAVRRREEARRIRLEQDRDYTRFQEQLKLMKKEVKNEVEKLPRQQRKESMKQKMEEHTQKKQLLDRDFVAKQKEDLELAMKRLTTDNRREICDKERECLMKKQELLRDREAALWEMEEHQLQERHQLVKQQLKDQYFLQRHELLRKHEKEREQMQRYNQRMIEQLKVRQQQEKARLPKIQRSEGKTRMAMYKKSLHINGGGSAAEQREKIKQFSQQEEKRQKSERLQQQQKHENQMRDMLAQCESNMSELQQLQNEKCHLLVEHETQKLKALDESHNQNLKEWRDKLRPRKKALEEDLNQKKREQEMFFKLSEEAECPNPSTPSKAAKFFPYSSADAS
compound,measurement,setting,value
"Cc1ccc(C2=Nc3cccnc3S(=O)(=O)c3ccccc32)cc1 [TBPT, 6-(p-tolyl)benzo[f] pyrido[2,3-b][1,4] thiazepine 11,11-dioxide]",remaining binding at 5 µM,ANKK1; 5 μM,91%
same,remaining binding at 10 µM,ANKK1; 10 μM,72%
same,remaining binding at 5 µM,ASK1; 5 μM,100%
same,remaining binding at 10 µM,ASK1; 10 μM,100%
same,remaining binding at 5 µM,BRK; 5 μM,100%
same,remaining binding at 10 µM,BRK; 10 μM,98%
same,remaining binding at 5 µM,BRSK1; 5 μM,100%
same,remaining binding at 10 µM,BRSK1; 10 μM,97%
same,remaining binding at 5 µM,CSNK1G3; 5 μM,100%
same,remaining binding at 10 µM,CSNK1G3; 10 μM,98%
same,remaining binding at 5 µM,DCAMKL2; 5 μM,100%
same,remaining binding at 10 µM,DCAMKL2; 10 μM,100%
same,remaining binding at 5 µM,DMPK; 5 μM,88%
same,remaining binding at 10 µM,DMPK; 10 μM,100%
same,remaining binding at 5 µM,EPHA2; 5 μM,87%
same,remaining binding at 10 µM,EPHA2; 10 μM,95%
same,remaining binding at 5 µM,ERK5; 5 μM,100%
same,remaining binding at 10 µM,ERK5; 10 μM,96%
same,remaining binding at 5 µM,FER; 5 μM,93%
same,remaining binding at 10 µM,FER; 10 μM,100%
same,remaining binding at 5 µM,FGFR1; 5 μM,98%
same,remaining binding at 10 µM,FGFR1; 10 μM,100%
same,remaining binding at 5 µM,FLT4; 5 μM,100%
same,remaining binding at 10 µM,FLT4; 10 μM,100%
same,remaining binding at 5 µM,"GCN2(Kin.Dom.2,S808G); 5 μM",100%
same,remaining binding at 10 µM,"GCN2(Kin.Dom.2,S808G); 10 μM",100%
same,remaining binding at 5 µM,HUNK; 5 μM,89%
same,remaining binding at 10 µM,HUNK; 10 μM,84%
same,remaining binding at 5 µM,IKK-alpha; 5 μM,56%
same,remaining binding at 10 µM,IKK-alpha; 10 μM,75%
same,remaining binding at 5 µM,JNK3; 5 μM,84%
same,remaining binding at 10 µM,JNK3; 10 μM,95%
same,remaining binding at 5 µM,KIT(D816H); 5 μM,71%
same,remaining binding at 10 µM,KIT(D816H); 10 μM,100%
same,remaining binding at 5 µM,LOK; 5 μM,100%
same,remaining binding at 10 µM,LOK; 10 μM,92%
same,remaining binding at 5 µM,MAP3K4; 5 μM,99%
same,remaining binding at 10 µM,MAP3K4; 10 μM,96%
same,remaining binding at 5 µM,PDGFRA; 5 μM,100%
same,remaining binding at 10 µM,PDGFRA; 10 μM,100%
same,remaining binding at 5 µM,PFTAIRE2; 5 μM,100%
same,remaining binding at 10 µM,PFTAIRE2; 10 μM,89%
same,remaining binding at 5 µM,PIK3CA(M1043I); 5 μM,100%
same,remaining binding at 10 µM,PIK3CA(M1043I); 10 μM,100%
same,remaining binding at 5 µM,PRKG2; 5 μM,88%
same,remaining binding at 10 µM,PRKG2; 10 μM,98%
same,remaining binding at 5 µM,RIOK1; 5 μM,83%
same,remaining binding at 10 µM,RIOK1; 10 μM,76%
same,remaining binding at 5 µM,SRC; 5 μM,87%
same,remaining binding at 10 µM,SRC; 10 μM,100%
same,remaining binding at 5 µM,TBK1; 5 μM,100%
same,remaining binding at 10 µM,TBK1; 10 μM,100%
same,remaining binding at 5 µM,TRPM6; 5 μM,100%
same,remaining binding at 10 µM,TRPM6; 10 μM,85%
same,remaining binding at 5 µM,[1]; 5 μM,69%
same,remaining binding at 10 µM,[1]; 10 μM,100%
same,remaining binding at 5 µM,p38-alpha; 5 μM,63%
same,remaining binding at 10 µM,p38-alpha; 10 μM,100%
